Four molecules from patent US20030144355A1, “Stabilisation of pigments and polyunsaturated oils and oil concentrates” (priority 1999, published 2003) can be followed below.

Series [1] in a line: weight-gain oxidative stability test of treated fish oil (induction period), Example 2. Format: physicochemical. The settings on record: for induction period (IP; time before rapid oxygen uptake): stored at about 35° C. As to the method: The oxidative stability of oils can be compared by accelerated tests, such as the weight-gain method, where oil samples are stored at elevated temperatures and oxygen atmosphere. The weight increase due to oxygen absorption is measured and plotted against time. At a certain time, depending on the oils resistance to oxidation, weight increase will be rapid, and the time before this happens is noted as the oils induction time (IP).
0.083 moles of amine/amide was added to 95 g of a fish oil, which was progressively heated to 90° C. (A series) or 140° C. (B series) during agitation to dissolve the substances in the oil. After 30 minutes at this temperature, the oil was cooled and filtered.
Three 3-g samples of filtered untreated oil, and three 3-g samples of filtered oil from each of the treatments described in table 1, were placed in identical petri dishes (60 mm, with loose fitting lids) and accurately weighed. The petri dishes were placed in an oven at about 35° C., and the weight increase related to oxygen uptake (oxidation) was recorded by weighing 3 times/week.
The results given in FIG. 4 and in FIG. 5 indicates large differences in stability as measured by induction periods (IP; i.e. the time before rapid oxygen uptake), ranging from 17 days (oils heated to 90° C. or 140° C. without any substance added) and 19 days (untreated oil), to 95 days (oils treated with hexylamine at 90° C., or allylurea at 140° C., or N,N′-dimethylurea at 140° C.).

Series [2] in a line: solubility in oil. The series is classed as physicochemical. To be noted: ambient temperature.
Where [3] appears, read: fish oil treated with 0.083 moles per 95 g oil at 140° C. for 30 minutes.

With `CCCCCCN` [A3, Hexylamine], the “stability in prolonged storage” value in series [1] (fish oil treated at 90° C., experiment continued for another 70 days, about 35° C.) was “still were stable”. The “induction period (IP; time before rapid oxygen uptake)” value (“induction period” below) in series [1] (fish oil treated with 0.083 moles per 95 g oil at 90° C. for 30 minutes) was found to be 95 days.
`CNC(=O)NC` [B4, N,N′-dimethylurea]: in series [1] (fish oil treated at 140° C., experiment continued for another 70 days, about 35° C.), the “day of rapid weight increase, prolonged storage” value was 135 days. Besides, in series [1] (setting [3]), the “induction period” value worked out at 95 days.
As for `NC(N)=O` [urea], the solubility in oil entry in series [2] is “approx. 1 g per kg oil”.
Consider `C=CCNC(N)=O` [allylurea, Allylurea], for which the “induction period” value in series [1] (setting [3]) is 95 days.
